Test results taken from PMC10518255, “A first-in-class pan-lysyl oxidase inhibitor impairs stromal remodeling and enhances gemcitabine response and survival in pancreatic cancer” (Nature Cancer, 2023).
“And” between values parts separate entries of the source, which are not always exact repeats. Equal entries are not always repeated.

Tests used:
cytochrome P450 enzymes = assay: Cytochrome P450 inhibition
Microsomal stability = assay type: in vitro ADME; settings: microsomes; In vitro (human)
[1] = system: KPC CAF remodeled 3D collagen matrices; assay: Matrix stiffness by unconfined compression testing of organotypic matrices; assay type: cell-based, mouse; settings: day 12, PXS-5505 30 µM, normalized to control, individual samples
Protocol: Fig. 3 PXS-5505 inhibition of CAF remodeling in vitro. a, Quantitative PCR with reverse transcription (qRT–PCR) showing in vitro comparison of KPC CAF relative expression of lysyl oxidase family members compared to KPC CCs from the same model (n = 3 biologically independent samples). Comparisons were determined by 2^–∆∆Ct approach. b, Representative images of 3D organotypic matrix contraction assay at days 2, 6 and 12 in the absence (gray) or presence (pink) of PXS-5505 (30 µM). Scale bars, 5 mm. Comparison of measured area of matrices between control and PXS-5505 treatment groups over time (n = 3 technical samples examined over three biologically independent samples). Data are mean ± s.d. c, Concentration of immature divalent DHLNL and mature trivalent Pyr collagen crosslinks determined by LC–MS from control and PXS-5505-treated organotypic matrices at day 12 (n = 3 technical samples examined over two biologically independent samples). Data are mean ± s.d. […] Data are presented as mean ± s.d. […] Comparison of number of CCs invaded per field of view (FOV) as determined by H&E and PanCK staining (nine images taken from three technical samples from each of three biologically independent contracted matrices), normalized to control. Data are mean ± s.d. Scale bars, 100 μm. […] Source data […]

[2] = Tissue concentration by LC-MS/MS after single oral dose of 30 mg/kg (plasma, kidney, liver, lung, heart, ear; Extended Data Fig. 3e)
Protocol: PXS-5505 concentration, as measured by LC–MS/MS, in rat plasma, kidney, liver, lung, heart and ear samples following a single oral dose of 30 mg/kg (n = 3 independent animals). Data presented as mean values +/− SD. f. Plasma concentration profile over time in mice following oral administration of PXS-5505 (30 mg/kg) (n = 3 independent animals) g. Schematic of amplex red coupled fluorometric lysyl oxidase family activity assay whereby putrescine (put) is used as a substrate resulting in the release of H2O2 and its subsequent catalysis by horseradish peroxidase (HRP) to […] amplex red to resorufin resulting in a fluorescently detectable signal. […] Data presented as mean values +/− SD. h. qRT-PCR showing in vitro 48 hour treatment of KPC CAFs or cancer cells with 30 μM PXS-5505 or vehicle control (n = 3 biological repeats with 3 technical replicates per biological repeat). Data presented as mean values +/− SD. Relative fold expression of lysyl oxidase family members from PXS-5505 treated samples compared to control were determined by the 2^–∆∆Ct approach. p-values determined by unpaired, nonparametric t-test with a Mann–Whitney U correction (comparison between two groups). i. 2D in vitro cell viability assay (MTS assay) for KPC CAFs and CCs (n = 3 biological repeats with 3 technical replicates per biological repeat) in response to PXS-5505. Data presented as mean values +/− SD. Ordinary one-way ANOVA for multiple comparison test performed. j. 3D in vitro cell viability assay (MTS assay) for KPC CAFs and CCs (n = 3 biological repeats with 3 technical replicates per biological repeat) in response to PXS-5505. Data presented as mean values +/− SD. Ordinary one-way ANOVA for multiple comparison test performed. Source data

[3] = rat, single oral dose 30 mg/kg, 1 hr, n = 3

## Cl.Cl.NC/C=C(\F)CS(=O)(=O)c1cccc2cccnc12.O [PXS-5505, (Z)-3-fluoro-4-(quinolin-8-ylsulfonyl)but-2-en-1-amine dihydrochloride monohydrate]
Cytochrome P450 enzymes
  inhibition of cytochrome P450 enzymes: does not inhibit
Microsomal stability
  remaining at 1 h: 97%
[1]
  matrix stiffness by unconfined compression testing: 0.918 and 0.779 and 0.916 and 0.962 and 0.835 and 0.748 and 0.939 and 0.975
[2]; after oral administration
  tissue penetration: penetrates core and peripheral matrix-rich tissues (the ear pinnae) well
[2]; [3]
  PXS-5505 concentration by LC-MS/MS, ear, Mean: 1911.2
  PXS-5505 concentration by LC-MS/MS, heart, Mean: 5777.3
  PXS-5505 concentration by LC-MS/MS, kidney, Mean: 19237.2
  PXS-5505 concentration by LC-MS/MS, liver, Mean: 32467.6
  PXS-5505 concentration by LC-MS/MS, lung, Mean: 954.9
  PXS-5505 concentration by LC-MS/MS, plasma, Mean: 3609.6
